# Source: ChEMBL document CHEMBL5214926, “Recent contribution of medicinally active 2-aminothiophenes: A privileged scaffold for drug discovery” (Eur J Med Chem, 2022)
# What was measured:
# [1] = Antiproliferative activity against human U-87 MG cells assessed as cell growth inhibition by MTT assay; assay type: functional, cell-based, U-87MG ATCC
# NCI-H460 = test: Antiproliferative activity against human NCI-H460 cells assessed as cell growth inhibition by MTT assay
# MKN-45 = test: Antiproliferative activity against human MKN-45 cells assessed as cell growth inhibition by MTT assay
# SMMC-7721 = test: Antiproliferative activity against human SMMC-7721 cells assessed as cell growth inhibition by MTT assay
# A549 = test: cells; details: Homo sapiens
# Description: Antiproliferative activity against human A549 cells assessed as cell growth inhibition by MTT assay
# HT-29 = test: cells; details: Homo sapiens
# Description: Antiproliferative activity against human HT-29 cells assessed as cell growth inhibition by MTT assay
# NCI-H1299 = test: Cytotoxicity against human NCI-H1299 cells assessed as cell growth inhibition incubated for 48 hrs by SRB assay; assay type: functional, cell-based; details: NCI-H1299, 48 h
# Leishmania amazonensis = test: Anti-promastigote activity against Leishmania amazonensis (IFLA/BR/67/PH8) assessed as promastigote growth inhibition incubated for 72 hrs by microscopic analysis; assay type: functional, organism-based
# Epidermophyton floccosum = test: Antifungal activity against Epidermophyton floccosum 6999 assessed as fungal growth inhibition by spectrophotometry; assay type: functional
# Trichophyton tonsurans [2] = test: Antifungal activity against Trichophyton tonsurans 700 assessed as fungal growth inhibition by spectrophotometry; assay type: functional
# Trichophyton tonsurans [3] = test: Antifungal activity against Trichophyton tonsurans 2822 assessed as fungal growth inhibition by spectrophotometry; assay type: functional
# Trichophyton rubrum = test: Antifungal activity against Trichophyton rubrum 6753 assessed as fungal growth inhibition by spectrophotometry; assay type: functional
# [4] = system: Trichophyton mentagrophytes; test: Antifungal activity against Trichophyton mentagrophytes 5432 assessed as fungal growth inhibition by spectrophotometry; assay type: functional
# Staphylococcus aureus [5] = test: Antibacterial activity against Staphylococcus aureus NCIM 2010 assessed as bacterial growth inhibition incubated for 8 hrs by absorbance based assay; assay type: functional
# Bacillus subtilis [6] = test: Antibacterial activity against Bacillus subtilis NCIM 2079 assessed as bacterial growth inhibition incubated for 8 hrs by absorbance based assay; assay type: functional
# Escherichia coli = test: Antibacterial activity against Escherichia coli NCIM 2688 assessed as bacterial growth inhibition incubated for 8 hrs by absorbance based assay; assay type: functional
# Pseudomonas aeruginosa = test: Antibacterial activity against Pseudomonas aeruginosa NCIM 2036 assessed as bacterial growth inhibition incubated for 8 hrs by absorbance based assay; assay type: functional
# [7] = system: Mycobacterium tuberculosis; test: Antimycobacterial activity against Mycobacterium tuberculosis H37Ra incubated for 8 to 12 days by XTT reduction menadione assay; assay type: functional; details: time 8-12 day
# Staphylococcus aureus [8] = test: Antibacterial activity against Staphylococcus aureus NCIM 2010 assessed as reduction in bacterial growth incubated for 8 hrs by absorbance based assay; assay type: functional, organism-based; details: NCIM 2010, 8 h
# Bacillus subtilis [9] = test: Antibacterial activity against Bacillus subtilis NCIM 2079 assessed as reduction in bacterial growth incubated for 8 hrs by absorbance based assay; assay type: functional, organism-based; details: NCIM 2079, 8 h
# Staphylococcus coagulans = test: Antimicrobial activity against Staphylococcus coagulans assessed as microbial growth inhibition incubated for 24 hrs by disc diffusion assay; assay type: functional
# Heyndrickxia coagulans = test: Antibacterial activity against Bacillus coagulans assessed as bacterial growth inhibition; assay type: functional
# Enterococcus faecalis = test: Antibacterial activity against Enterococcus faecalis assessed as bacterial growth inhibition; assay type: functional
# PC-3 = test: Cytotoxicity against human PC-3 cells assessed as cell growth inhibition incubated for 2 days by MTT assay; assay type: functional, cell-based; details: PC-3, 48 h
# HepG2 [10] = test: Cytotoxicity against human HepG2 cells assessed as cell growth inhibition incubated for 2 days by MTT assay; assay type: functional, cell-based; details: HepG2, 48 h
# MCF7 [11] = test: Cytotoxicity against human MCF7 cells assessed as cell growth inhibition incubated for 2 days by MTT assay; assay type: functional, cell-based; details: MCF7, 48 h
# [12] = Inhibition of CaCC (unknown origin) current potentiation; parameters: species or system Homo sapiens
# HepG2 [13] = test: Cytotoxicity against human HepG2 cells assessed as cell growth inhibition incubated for 48 hrs by MTT assay; assay type: functional, cell-based; details: Homo sapiens, HepG2, 48 h
# MCF7 [14] = test: Cytotoxicity against human MCF7 cells assessed as cell growth inhibition incubated for 48 hrs by MTT assay; assay type: functional, cell-based; details: MCF7, 48 h
# [15] = Leishmania amazonensis, IFLA/BR/67/PH8, 72 h
structure (smiles),measurement,setting,value
N#CCC(=O)Nc1sc(C(=O)Nc2ccc(Cl)cc2)c(-c2ccccc2)c1C#N,IC50,[1],0.86 µM
same,IC50,NCI-H460,1.04 µM
same,IC50,MKN-45,0.59 µM
same,IC50,SMMC-7721,0.39 µM
same,IC50,A549,1.4 µM
same,IC50,HT-29,0.86 µM
N#Cc1c(NC(=O)CNc2n[nH]c3ncccc23)sc2c1CCCC2,IC50,NCI-H1299,0.0125 µM
CCOC(=O)c1c(Nc2c3ccc(Cl)cc3nc3ccc(OC)cc23)sc2c1CCCC2,EC50,Leishmania amazonensis,26.6 µM
same,EC50,Leishmania amazonensis; [15],51.4 µM
N#Cc1ccsc1/N=C/c1c[nH]c2cccc([N+](=O)[O-])c12,MIC,Epidermophyton floccosum,1020 µg/mL
same,MIC,Trichophyton tonsurans [2],128 µg/mL
same,MIC,Trichophyton tonsurans [3],512 µg/mL
same,MIC,Trichophyton rubrum,64 µg/mL
same,MIC,[4],512 µg/mL
COc1ccc2nc3cc(Cl)ccc3c(Nc3sc4c(c3C#N)CCCCCC4)c2c1,EC50,Leishmania amazonensis; [15],69 µM
COC(=O)c1c(NC(=O)N[C@@H](C(=O)N[C@@H]2C(=O)N3[C@@H]2SC(C)(C)[C@@H]3C(=O)O)c2ccc(O)cc2)sc2c1CCCCCC2,MIC,Staphylococcus aureus [5],0.28 µg/mL
same,MIC,Bacillus subtilis [6],2.57 µg/mL
same,MIC,Escherichia coli,> 10 µg/mL
same,MIC,Pseudomonas aeruginosa,> 10 µg/mL
same,MIC,[7],> 50 µg/mL
same,EC50,Staphylococcus aureus [8],0.16 µM
same,EC50,Bacillus subtilis [9],0.25 µM
Cc1cc(C)c2c(NCC(=O)Nc3sc4c(c3C#N)CCCC4)n[nH]c2n1,IC50,NCI-H1299,13.7 µM
COC(=O)c1ccsc1NC(=O)N[C@@H](C(=O)N[C@@H]1C(=O)N2C(C(=O)O)=C(C)CS[C@H]12)c1ccccc1,MIC,Staphylococcus aureus [5],0.75 µg/mL
same,MIC,Bacillus subtilis [6],3.14 µg/mL
same,MIC,Escherichia coli,> 10 µg/mL
same,MIC,Pseudomonas aeruginosa,> 10 µg/mL
same,MIC,[7],> 50 µg/mL
same,EC50,Staphylococcus aureus [8],0.26 µM
same,EC50,Bacillus subtilis [9],0.21 µM
Cc1sc(NC(=O)c2cc(O)c(O)c(O)c2)c(C#N)c1C,MIC,Staphylococcus coagulans,0.49 µM
same,MIC,Heyndrickxia coagulans,0.15 µg/mL
same,MIC,Enterococcus faecalis,0.25 µg/mL
CC1(C)S[C@@H]2[C@H](NC(=O)[C@H](N)c3ccc(O)cc3)C(=O)N2[C@H]1C(=O)O [AMOXICILLIN],MIC,Staphylococcus aureus [5],0.29 µg/mL
same,MIC,Bacillus subtilis [6],0.32 µg/mL
same,MIC,Escherichia coli,0.32 µg/mL
same,MIC,Pseudomonas aeruginosa,> 10 µg/mL
same,EC50,Staphylococcus aureus [8],0.15 µM
same,EC50,Bacillus subtilis [9],0.15 µM
N#Cc1c(NC(=O)CN/N=C/c2cccc([N+](=O)[O-])c2)sc2c1CCCC2,IC50,NCI-H1299,18.5 µM
CCOC(=O)c1c(NC(=O)/C=C/c2ccc(O)cc2)sc2c1CCCC2,IC50,PC-3,6.29 µM
same,IC50,HepG2 [10],8.3 µM
same,IC50,MCF7 [11],8.27 µM
N#Cc1ccsc1/N=C/c1c(Cl)cccc1Cl,MIC,Trichophyton tonsurans [2],64 µg/mL
same,MIC,Trichophyton tonsurans [3],256 µg/mL
same,MIC,Trichophyton rubrum,32 µg/mL
CCOC(=O)c1c(Nc2c3ccc(Cl)cc3nc3ccc(OC)cc23)sc2c1CCCCC2,EC50,Leishmania amazonensis; [15],26.6 µM
N#Cc1c(N)sc(C(=O)Nc2ccc(Cl)cc2)c1-c1ccccc1,IC50,[1],0.59 µM
same,IC50,NCI-H460,0.76 µM
same,IC50,MKN-45,0.42 µM
same,IC50,SMMC-7721,0.69 µM
same,IC50,A549,0.7 µM
same,IC50,HT-29,0.65 µM
CC(C)(C)C1CCc2c(sc(NC(=O)C3CCCO3)c2C(=O)O)C1 (configuration not stated),IC50,[12],1.7 µM
COc1ccc2nc3cc(Cl)ccc3c(Nc3sc4c(c3C#N)CCCCC4)c2c1,EC50,Leishmania amazonensis; [15],32.3 µM
CCOC(=O)c1c(N)sc(C(=O)Nc2ccccc2)c1-c1ccccc1,IC50,[1],7.42 µM
same,IC50,NCI-H460,8.59 µM
same,IC50,MKN-45,8.09 µM
same,IC50,SMMC-7721,8.58 µM
same,IC50,A549,6.8 µM
same,IC50,HT-29,7.49 µM
COC(=O)c1c(N)sc2c1CCC(C(C)(C)C)C2 (configuration not stated),IC50,[12],4.6 µM
CC(=O)c1ccc(Nc2c(C(C)=O)sc(N)c2C#N)cc1,IC50,HepG2 [13],88.5 µM
same,IC50,MCF7 [14],91.5 µM
N#Cc1c(NC(=O)c2cc(O)c(O)c(O)c2)sc2c1CCCC2,MIC,Staphylococcus coagulans,0.45 µM
same,MIC,Heyndrickxia coagulans,0.15 µg/mL
same,MIC,Enterococcus faecalis,0.17 µg/mL
N#CCC(=O)Nc1sc(C(=O)Nc2ccccc2)c(-c2ccccc2)c1C#N,IC50,[1],6.28 µM
same,IC50,NCI-H460,8.06 µM
same,IC50,MKN-45,9.14 µM
same,IC50,SMMC-7721,7.93 µM
same,IC50,A549,7.59 µM
same,IC50,HT-29,6.59 µM
CCOC(=O)c1c(N)sc(C(=O)Nc2ccc(Cl)cc2)c1-c1ccccc1,IC50,[1],0.39 µM
same,IC50,NCI-H460,0.38 µM
same,IC50,MKN-45,0.26 µM
same,IC50,SMMC-7721,0.42 µM
same,IC50,A549,0.23 µM
same,IC50,HT-29,0.19 µM
COc1cc2c(Oc3ccc(NC(=O)C4(C(=O)Nc5ccc(F)cc5)CC4)cc3F)ccnc2cc1OCCCN1CCOCC1 [FORETINIB],IC50,[1],0.9 µM
CC(=O)Nc1sc(C(C)=O)c(Nc2ccc(C(C)=O)cc2)c1C#N,IC50,HepG2 [13],66.2 µM
same,IC50,MCF7 [14],64.6 µM
